14 compounds from ChEMBL document CHEMBL3421558, “Structure activity relationship of substituted 1,5-naphthyridine analogs of oxabicyclooctane-linked novel bacterial topoisomerase inhibitors as broad-spectrum antibacterial agents (Part-4)” (Bioorg Med Chem Lett, 2015) can be followed below.

In brackets after ≈: the same amount, converted by molar mass.

Common to all, as to type: functional
Experiment [1] has as its system Pseudomonas aeruginosa. The experiment is described as follows: Antimicrobial activity against Pseudomonas aeruginosa PAO1 by micro broth dilution or agar based method. On the technique in general: In broth dilution the organism is exposed to a series of concentrations in liquid medium.
Experiment [2] has as its system Streptococcus pneumoniae. The experiment is described as follows: Antimicrobial activity against Streptococcus pneumoniae IID553 by micro broth dilution or agar based method.
Experiment [3] concerns Acinetobacter baumannii. The experiment is described as follows: Antimicrobial activity against Acinetobacter baumannii IID876 by micro broth dilution or agar based method.
For experiment [4], the system named is Enterococcus faecium. The experiment is described as follows: Antimicrobial activity against VanA expressing vancomycin-resistant Enterococcus faecium by micro broth dilution or agar based method.
Experiment [5] concerns Escherichia coli. The experiment is described as follows: Antimicrobial activity against Escherichia coli ATCC 25922 by micro broth dilution or agar based method.
In experiment [6] the test system is Staphylococcus aureus. The experiment is described as follows: Antimicrobial activity against Staphylococcus aureus Smith by micro broth dilution or agar based method.
Experiment [7] deals with Staphylococcus aureus. The experiment is described as follows: Antimicrobial activity against methicillin-resistant Staphylococcus aureus OIT971 by micro broth dilution or agar based method.
Setting [8] is: Pseudomonas aeruginosa, PAO1, read-out: MIC.
The mark [9] stands for this setting: Streptococcus pneumoniae, IID553, read-out: MIC.
The mark [10] stands for this setting: Acinetobacter baumannii, IID876, read-out: MIC.
The mark [11] stands for this setting: Enterococcus faecium, read-out: MIC.
The mark [12] stands for this setting: Escherichia coli, ATCC 25922, read-out: MIC.
[13] abbreviates: Staphylococcus aureus, Smith, read-out: MIC.

The MIC is the lowest concentration found to suppress growth. For `COc1ccc2ncc(S(C)(=O)=O)c(CCC34CCC(NCc5ccc6c(n5)NC(=O)CO6)(CC3)CO4)c2n1`, the MIC was 32 µg/mL (≈ 57.8 µM) in experiment [1] (setting [8]); 0.5 µg/mL (≈ 0.903 µM) in experiment [2] (setting [9]); 8 µg/mL (≈ 14.4 µM) in experiment [3] (setting [10]); 4 µg/mL (≈ 7.22 µM) in experiment [4] (setting [11]); 16 µg/mL (≈ 28.9 µM) in experiment [5] (setting [12]); 0.25 µg/mL (≈ 0.452 µM) in experiment [6] (setting [13]).
Regarding `COc1cc2ncc(F)c(CCC34CCC(NCc5ccc6c(n5)NC(=O)CO6)(CC3)CO4)c2nc1OC`, the MIC in experiment [1] (setting [8]) came out at 8 µg/mL (≈ 15.3 µM); in experiment [2] (setting [9]), 8 µg/mL (≈ 15.3 µM); in experiment [7], 0.25 µg/mL (≈ 0.477 µM); in experiment [3] (setting [10]), 8 µg/mL (≈ 15.3 µM); in experiment [4] (setting [11]), 8 µg/mL (≈ 15.3 µM); in experiment [5] (setting [12]), 8 µg/mL (≈ 15.3 µM). Also, the MIC in experiment [6] (setting [13]) is 0.5 µg/mL (≈ 0.955 µM).
Consider `Nc1ccc2ncc(F)c(CCC34CCC(NCc5ccc6c(n5)NC(=O)CO6)(CC3)CO4)c2n1`, for which the MIC came out at 16 µg/mL (≈ 33.4 µM) in experiment [1] (setting [8]); 16 µg/mL (≈ 33.4 µM) in experiment [2] (setting [9]); 1 µg/mL (≈ 2.09 µM) in experiment [7]; 2 µg/mL (≈ 4.18 µM) in experiment [3] (setting [10]); 8 µg/mL (≈ 16.7 µM) in experiment [4] (setting [11]); 8 µg/mL (≈ 16.7 µM) in experiment [5] (setting [12]). Besides, the minimal inhibitory concentration (MIC) in experiment [6] (setting [13]) was 2 µg/mL (≈ 4.18 µM).
With `COc1ccc2ncc(C#N)c(CC(O)C34CCC(NCc5ccc6c(n5)NC(=O)CO6)(CC3)CO4)c2n1` (stereo in doubt; 88), the MIC in experiment [1] (setting [8]) was 8 µg/mL (≈ 15.5 µM); in experiment [2] (setting [9]), 0.25 µg/mL (≈ 0.484 µM); in experiment [7], 0.031 µg/mL (≈ 0.06 µM); in experiment [3] (setting [10]), 0.5 µg/mL (≈ 0.968 µM); in experiment [4] (setting [11]) it was 1 µg/mL (≈ 1.94 µM); in experiment [5] (setting [12]) it was 4 µg/mL (≈ 7.74 µM). In experiment [6], the MIC came out at 0.031 µg/mL (≈ 0.06 µM).
For the compound `O=C1COc2ccc(CNC34CCC(CCc5ccnc6cc(F)cnc56)(CC3)OC4)nc2N1`, the MIC turned out to be 32 µg/mL (≈ 69 µM) in experiment [1] (setting [8]); 32 µg/mL (≈ 69 µM) in experiment [2] (setting [9]); 8 µg/mL (≈ 17.3 µM) in experiment [7]; 16 µg/mL (≈ 34.5 µM) in experiment [3] (setting [10]); 32 µg/mL (≈ 69 µM) in experiment [4] (setting [11]); 32 µg/mL (≈ 69 µM) in experiment [5] (setting [12]). Moreover, the MIC in experiment [6] (setting [13]) is 16 µg/mL (≈ 34.5 µM).
As for `COc1ccc2ncc(C#N)c(CCC34CCC(NCc5ccc6c(n5)NC(=O)CO6)(CC3)CO4)c2n1`, the MIC amounted to 4 µg/mL (≈ 7.99 µM) in experiment [1] (setting [8]); 0.125 µg/mL (≈ 0.25 µM) in experiment [2] (setting [9]); 0.008 µg/mL (≈ 0.016 µM) in experiment [7]; 1 µg/mL (≈ 2 µM) in experiment [3] (setting [10]); 0.5 µg/mL (≈ 0.999 µM) in experiment [4] (setting [11]); 2 µg/mL (≈ 4 µM) in experiment [5] (setting [12]). In addition, in experiment [6] (setting [13]), the MIC was found to be 0.016 µg/mL (≈ 0.032 µM).
With `O=C1COc2ccc(CNC34CCC(CCc5c(F)cnc6cc(C(F)(F)F)cnc56)(CC3)OC4)nc2N1`, the MIC in experiment [1] (setting [8]), in experiment [2] (setting [9]), in experiment [7], in experiment [3] (setting [10]), in experiment [4] (setting [11]) and in experiment [5] (setting [12]) was 16 µg/mL (≈ 30.1 µM) throughout. In experiment [6] (setting [13]), the minimal inhibitory concentration (MIC) turned out to be 16 µg/mL (≈ 30.1 µM).
Take `COc1ccc2ncc(OC)c(CCC34CCC(NCc5ccc6c(n5)NC(=O)CO6)(CC3)CO4)c2n1`: the MIC in experiment [1] (setting [8]) came out at 64 µg/mL (≈ 127 µM); in experiment [2] (setting [9]) it was 4 µg/mL (≈ 7.91 µM); in experiment [7], 0.063 µg/mL (≈ 0.125 µM); in experiment [3] (setting [10]), 8 µg/mL (≈ 15.8 µM); in experiment [4] (setting [11]) it was 4 µg/mL (≈ 7.91 µM); in experiment [5] (setting [12]) it was 16 µg/mL (≈ 31.6 µM). The MIC in experiment [6] (setting [13]) was determined as 0.125 µg/mL (≈ 0.247 µM).
In the case of `COc1ccc2ncc(C)c(CCC34CCC(NCc5ccc6c(n5)NC(=O)CO6)(CC3)CO4)c2n1`, the MIC amounted to 16 µg/mL (≈ 32.7 µM) in experiment [1] (setting [8]); 0.06 µg/mL (≈ 0.123 µM) in experiment [2] (setting [9]); 2 µg/mL (≈ 4.09 µM) in experiment [3] (setting [10]); 1 µg/mL (≈ 2.04 µM) in experiment [4] (setting [11]); 4 µg/mL (≈ 8.17 µM) in experiment [5] (setting [12]); 0.06 µg/mL (≈ 0.123 µM) in experiment [6] (setting [13]).
As to `COc1cc(OC)c2nccc(CCC34CCC(NCc5ccc6c(n5)NC(=O)CO6)(CC3)CO4)c2n1`, the MIC was 64 µg/mL (≈ 127 µM) in experiment [1] (setting [8]); 8 µg/mL (≈ 15.8 µM) in experiment [2] (setting [9]); 0.25 µg/mL (≈ 0.494 µM) in experiment [7]; 8 µg/mL (≈ 15.8 µM) in experiment [3] (setting [10]); 8 µg/mL (≈ 15.8 µM) in experiment [4] (setting [11]); 32 µg/mL (≈ 63.3 µM) in experiment [5] (setting [12]). The MIC in experiment [6] (setting [13]) amounted to 0.5 µg/mL (≈ 0.989 µM).
As to `COc1nc2c(CCC34CCC(NCc5ccc6c(n5)NC(=O)CO6)(CC3)CO4)ccnc2cc1Cl`, the MIC came out at 32 µg/mL (≈ 62.7 µM) in experiment [1] (setting [8]); 8 µg/mL (≈ 15.7 µM) in experiment [2] (setting [9]); 0.25 µg/mL (≈ 0.49 µM) in experiment [7]; 32 µg/mL (≈ 62.7 µM) in experiment [3] (setting [10]); 16 µg/mL (≈ 31.4 µM) in experiment [4] (setting [11]); 32 µg/mL (≈ 62.7 µM) in experiment [5] (setting [12]). Further, the MIC in experiment [6] (setting [13]) was determined as 0.5 µg/mL (≈ 0.98 µM).
Consider `COc1ccc2ncc(C(N)=O)c(CCC34CCC(NCc5ccc6c(n5)NC(=O)CO6)(CC3)CO4)c2n1`, for which the MIC is 32 µg/mL (≈ 61.7 µM) in experiment [1] (setting [8]); 2 µg/mL (≈ 3.86 µM) in experiment [2] (setting [9]); 32 µg/mL (≈ 61.7 µM) in experiment [3] (setting [10]); 16 µg/mL (≈ 30.9 µM) in experiment [4] (setting [11]); 32 µg/mL (≈ 61.7 µM) in experiment [5] (setting [12]); 4 µg/mL (≈ 7.71 µM) in experiment [6] (setting [13]).
Consider `COc1ccc2ncc(C(F)(F)F)c(CCC34CCC(NCc5ccc6c(n5)NC(=O)CO6)(CC3)CO4)c2n1`, for which the MIC was 32 µg/mL (≈ 58.9 µM) in experiment [1] (setting [8]); 0.25 µg/mL (≈ 0.46 µM) in experiment [2] (setting [9]); 2 µg/mL (≈ 3.68 µM) in experiment [3] (setting [10]); 1 µg/mL (≈ 1.84 µM) in experiment [4] (setting [11]); 4 µg/mL (≈ 7.36 µM) in experiment [5] (setting [12]); 0.03 µg/mL (≈ 0.0552 µM) in experiment [6] (setting [13]).
For the compound `COc1ccc2ncc(C#N)c(CC(O)C34CCC(NCc5ccc6c(n5)NC(=O)CO6)(CC3)CO4)c2n1` (single isomer, unassigned; (-)), the MIC in experiment [1] was 16 µg/mL (≈ 31 µM); in experiment [2], 0.25 µg/mL (≈ 0.484 µM); in experiment [3] it was 1 µg/mL (≈ 1.94 µM); in experiment [4] it was 2 µg/mL (≈ 3.87 µM); in experiment [5], 4 µg/mL (≈ 7.74 µM); in experiment [6] it was 0.063 µg/mL (≈ 0.122 µM).
